According to US20110257202A1, “Therapeutic Compositions and Methods for Treating Chronic Kidney Disease Associated with a Metabolic Imbalance” (priority 2008, published 2011):
“Also recorded” adds a separate entry of the source.

Experiments:
DM eNOSKO mice [1] = test: Renal histology (diabetic nephropathy) in diabetic eNOSKO mice; type: in vivo
Source text: It has been shown that when diabetes is induced in these mice with streptozotocin, that they develop all aspects of human diabetic nephropathy, including clinical manifestations (nephrotic proteinuria, progressive renal failure and early mortality), histologic manifestations (including mesangial expansion, nodules and mesangiolysis, podocyte abnormalities, vascular lesions, tubulointerstitial disease) and molecular changes (increases in TGF-β and VEGF expression). To the inventors' knowledge this is also the first diabetic model that develops both retinopathy and nephropathy spontaneously.
(§1) FIG. 4 ACE inhibitors and ARBs are not effective at preventing diabetic nephropathy in eNOSKO mice. DM caused mesangial expansion in DM eNOSKO mice (B), which was not prevented by enalapril (C) or telmisartan (D). […] Bar: 20 μm. […] Bar: 20 μm. White bar=no treatment; Black bar=enalapril; Gray bar=telmisartan. Data are shown as means and
FIG. 7 is an immunohistograph of a kidney of a Diabetic eNOSKO mouse showing an increase in aldosterone in its glomeruli. Diabetes was induced with streptozotocin in eNOSKO mice, which were treated with enalapril (10 mg/kg BW/day; black bar) or telmisartan (2 mg/kg BW/day; gray bar) for 4 weeks (from at 6 weeks to 10 weeks)
(§2) DM caused mesangial expansion in DM eNOSKO mice (b), which was not prevented by enalapril (c) or telmisartan (d). […] Bar: 20 μm. […] Bar: 20 μm. White bar=no treatment; Black bar=enalapril; Gray bar=telmisartan. FIG. 5 pertains to a table that provides results of the effect of ACE inhibitors and ARBs on blood pressure and renal function in diabetic nephropathy in eNOSKO mice. ACE inhibitors and ARBs are effective at lowering blood pressure and proteinuria in wild type diabetic mice, and are also effective at lowering blood pressure in nondiabetic eNOSKO mice.

[2] = test system: wild type diabetic (DM) mice; test: Blood pressure in wild type diabetic mice; type: in vivo
Source text: (§3) FIG. 1 represents a graph showing that ACE inhibitors are effective in lowering blood pressure in wild type diabetic (DM) mice. Shown in FIG. 1 is the effect of no treatment (No TX), the ACE inhibitor enalapril (DM enalapril), and the ARB telmisartan (DM telmisartan).
as §3, with “is” for “represents”, “telmisartan). […] These are considered early changes of diabetic nephropathy.” for “telmisartan).”

DM eNOSKO mice [3] = test: Blood pressure in diabetic eNOSKO mice; type: in vivo; conditions: diabetic mice lacking endothelial nitric oxide synthesis; 50 mg/kg
[4] = test system: wild type diabetic (DM) mice; test: Renal histology (early diabetic nephropathy) in wild type diabetic mice; type: in vivo
Source text: These are considered early changes of diabetic nephropathy.
as §1
as §3, with “is” for “represents”, “telmisartan). […] These are considered early changes of diabetic nephropathy.” for “telmisartan).”
as §2

mitochondria = test: Mitochondrial loss in response to oxidative stress
eNOSKO mice = conditions: 4 weeks, 50 mg/l drinking water
Description: Since nitrite is a metabolite of NO, and can be converted to NO in the body (reviewed in ^28), sodium nitrite was tested to see if it could prevent hypertension in eNOSKO mice.

[5] = test system: human aortic endothelial cells; test: Oxidative stress (DCF-DA fluorescence) in endothelial cells; type: cell-based; conditions: 12 mg/dl
Description: The green fluorescence is a measure of a marker for oxidative stress using the peroxide-sensitive probe 2′7′-dichlorofluorescein diacetate (DCF-DA) dye (FIG. 9A). On the right is the quantitation of oxidative stress, with control in open bar, uric acid (12 mg/dl) in the black bar, and uric acid with apocynin (an inhibitor of NADPH oxidase-induced oxidants) in the right bar (FIG. 9B).

[6] = test system: porcine aortic endothelial cells; conditions: various doses, from Khosla et al; cited from earlier work
[7] = test system: human aortic endothelial cells; test: Cell viability (trypan blue exclusion); type: cell-based; conditions: 48 hours
[8] = test system: human aortic endothelial cells; test: ATP levels in endothelial cells; type: cell-based; conditions: 3.5, 7 and 12 mg/dl, 48 hours
Description: Uric acid (3.5 mg/dl, 7 mg/dl and 12 mg/dl) was included in the media for 48 hours.
(§4) One of the key mechanisms by which uric acid acts to cause endothelial dysfunction is to cause a loss of mitochondria and mitochondria DNA, resulting in depletion of ATP stores necessary for endothelial function (FIGS. 11 and 12).

[9] = test system: human aortic endothelial cells; test: Mitochondria number (Mitotracker Orange) in endothelial cells; type: cell-based; conditions: 12 mg/dl, 48 hours
Description: Mitochondria numbers were measured with Mitotracker Orange in control cells (FIG. 12A) and UA treated cells (FIG. 12B). Shown in FIG. 12C is the quantified effect of uric acid 12 mg/dl on mitochondria density at 48 hours.
as §4

DM eNOSKO mice [10] = conditions: diabetic eNOS-deficient mice; reference 21; cited from earlier work

| Compound | advanced lesions (mesangiolysis with glomerular capillary microaneurysms, augmented deposition of extracellular matrix) (DM eNOSKO mice [1]) | mesangial expansion (DM eNOSKO mice [1]) | blood pressure (BP) [2] | glomerular type IV collagen deposition [4] | mesangial expansion [4] | also measured |
| --- | --- | --- | --- | --- | --- | --- |
| CCOC(=O)[C@H](CCc1ccccc1)N[C@@H](C)C(=O)N1CCC[C@H]1C(=O)O [enalapril] | Neither enalapril (g) nor telmisartan (h) treatment prevented these advanced lesions | not prevented | can significantly lower blood pressure | improve | improve mesangial expansion; also recorded: beneficial effect | BP (DM eNOSKO mice [3]): did not lower BP |
| O=C(NCCO[N+](=O)[O-])c1cccnc1 [nicorandil] |  |  |  |  |  | mitochondrial loss (mitochondria): can prevent mitochondrial loss |
| O=NO [sodium nitrite] |  |  |  |  |  | blood pressure (eNOSKO mice): reduced blood pressure in eNOSKO mice similar to that observed in wild type mice |
| CCCc1nc2c(C)cc(-c3nc4ccccc4n3C)cc2n1Cc1ccc(-c2ccccc2C(=O)O)cc1 [telmisartan] | Neither enalapril (g) nor telmisartan (h) treatment prevented these advanced lesions | not prevented | can significantly lower blood pressure | improve | improve mesangial expansion; also recorded: beneficial effect |  |
| O=c1[nH]c(=O)c2[nH]c(=O)[nH]c2[nH]1 [uric acid] |  |  |  |  |  | oxidative stress (DCF-DA) [5]: causes oxidative stress; endothelial NO levels (fluorescence of DAF) [6]: causes a reduction in endothelial NO levels; cell viability ([7]; 12 mg/dl): No effects on cell viability; cell viability (trypan blue exclusion) ([7]; 3.5, 7 and 12 mg/dl): No alterations in cell viability; ATP levels [8]: reduces ATP levels; mitochondria number [9]: reduces mitochondria number |
| insulin |  |  |  |  |  | renal disease (DM eNOSKO mice [10]): can be prevented |
